From US5202351A, “1-phenylalkyl-3-phenylurea derivative” (Mitsubishi Kasei Corporation, priority 1990, dated 1993)

Legend:
[1] = biological target: T1, ACAT (Mesocricetus auratus, UniProt A0A1U8BU94); experiment: ACAT inhibitory action (cholesteryl oleate formation from radio-labelled oleoyl coenzyme A, liver microsome); assay type: biochemical; settings: hamster liver microsome; inhibition of cholesteryl oleate formation
T1 construct: each tissue specimen containing hamster liver microsome; from tissue; host or cells: hamster liver microsomes
T1 sequence (A0A1U8BU94 1-521): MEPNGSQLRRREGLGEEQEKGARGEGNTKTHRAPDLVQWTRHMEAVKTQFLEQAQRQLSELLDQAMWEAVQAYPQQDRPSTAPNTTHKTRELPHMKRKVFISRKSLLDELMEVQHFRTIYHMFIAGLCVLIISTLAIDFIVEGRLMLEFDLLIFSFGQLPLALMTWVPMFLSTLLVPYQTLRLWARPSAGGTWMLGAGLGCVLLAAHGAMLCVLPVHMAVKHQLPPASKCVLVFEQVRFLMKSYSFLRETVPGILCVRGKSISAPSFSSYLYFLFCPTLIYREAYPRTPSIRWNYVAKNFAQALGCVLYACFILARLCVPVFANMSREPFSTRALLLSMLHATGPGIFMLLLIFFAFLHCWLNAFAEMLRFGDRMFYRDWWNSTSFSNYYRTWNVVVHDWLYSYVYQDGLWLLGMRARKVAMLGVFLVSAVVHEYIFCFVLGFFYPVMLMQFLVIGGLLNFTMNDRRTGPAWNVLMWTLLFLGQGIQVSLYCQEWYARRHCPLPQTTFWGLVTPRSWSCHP
Protocol: The ACAT inhibitory action of the compounds of this invention was determined by the following method.
ACAT activity was determined by measuring the amount of ratio-active cholesteryl oleate formed from radio-labelled oleoyl coenzyme A in each tissue specimen containing hamster liver microsome. The reduction rates (%) in the amount of formation of cholesteryl oleate by the administration of the test compound in various concentrations (μM) as compared with as compared with the amount of formation in the control group to which no test compound was administrated were measured. The ACAT inhibitory action was evaluated by IC50, the concentration of the test compound necessary for inhibiting the activity of the enzyme by 50%, obtained from the reduction rates.

[2] = tested on: cholesterol level in the serum; experiment: effect of reducing a lipid level in blood (serum cholesterol) in hamsters fed diet containing 1% cholesterol and 0.5% cholic acid; assay type: in vivo, golden hamster (male); settings: percent inhibition of serum cholesterol relative to control, 1 mg/10 ml water/kg orally once a day, blood taken on fifth day 3 h after final administration; for inhibition in vivo at 1 mg/kg: Mesocricetus auratus, po, once a day, read-out: Reduction of Cholesterol in Blood
Protocol: The effect of reducing a lipid level in blood by the action of the compounds according to the present invention was determined as follows:
Male golden hamsters weighing from 80 to 100 g were randomly divided into groups. The hamsters were first fed standard laboratory diets (solid feed MF-1 for mouse/rat/hamster, manufactured by Oriental yeast Industries, KK) for 3 days. Then, they were fed the experimental diet containing 1% cholesterol and 0.5% cholic acid ad libitum. At the same time, the compounds of the invention formulated in a shown dose (1 mg/10 ml water/kg) were administrated to the hamsters orally once a day at a determined time. Water was administrated orally to the hamsters of control group in an amount of 10 ml per 1 kg of body weight. On fifth day of administrating the compounds, the hamsters were anesthetized with nembutal (Nembutal injection, manufactured by Dainabbot) three hours after the final administration of the test compound, and a blood sample was taken from abdominal cava. The serum was separated from the sample by centrifuging.
The cholesterol level in the serum was determined by using a blood cholesterol measuring kit, Determina-TC5 manufactured by Kyowa Medix Co. The results are represented by percent inhibition (%) of cholesterol level in serum relative to that of the control group, and shown in the following Table 20.

[3] = tested on: cholesterol level in the serum; experiment: as above; assay type: in vivo, golden hamster (male); settings: Mesocricetus auratus, po, 120 h, comparison compound; dose of 5 mg/kg p.o.; read-out: Reduction of Cholesterol in Blood

| IC50 [1] [nM] | Structure (SMILES) | inhibition in vivo at 1 mg/kg [2] [%] | also measured |
| --- | --- | --- | --- |
| 28 | CC(C)c1cccc(C(C)C)c1NC(=O)NCC(c1cccc2c1OCO2)C(C)C (stereo not shown) [Example 4] |  |  |
| 32 | CCCCCC(CNC(=O)Nc1c(CC)cccc1CC)c1cccc2c1OCO2 (stereo not shown) [Example 35] |  |  |
|  | CCCCCC(CNC(=O)Nc1c(C(C)C)cccc1C(C)C)c1ccc2c(c1)OCCO2 (stereo not shown) [Example 24] | 41 |  |
|  | CCCCC(CNC(=O)Nc1c(C(C)C)cccc1C(C)C)c1ccc2c(c1)OCCCO2 (stereo not shown) [Example 26] | 40 |  |
| 4 | CCCCCC(CNC(=O)Nc1c(C(C)C)cccc1C(C)C)c1cccc2c1CCCC2 (stereo not shown) [Example 56] | 42 |  |
| 28 | CCCCC(CNC(=O)Nc1c(C(C)C)cccc1C(C)C)c1cccc2c1CCCC2 (single isomer, unassigned) [Example 66] |  | Reduction of Cholesterol in Blood [2]: 40% |
|  | CCCCCC(CCCCC)(CNC(=O)Nc1c(C(C)C)cccc1C(C)C)c1cccc2c1OCO2 [Example 31] | 16 |  |
| 11 | CCCCCCC(CNC(=O)Nc1c(C(C)C)cccc1C(C)C)c1cccc2c1OCO2 (stereo not shown) [Example 8] |  |  |
|  | CCCCCC(CNC(=S)Nc1c(C(C)C)cccc1C(C)C)c1cccc2c1OCO2 (stereo not shown) [Example 54, 1-(2-(2,3-methylenedioxyphenyl)heptyl)-3-(2,6-diisopropylphenyl)thiourea] | 21 |  |
| 85 | CCC(CNC(=O)Nc1c(C(C)C)cccc1C(C)C)c1cccc2c1OCO2 (stereo not shown) [Example 3] |  |  |
| 5 | CCCCCC(CNC(=O)Nc1c(C(C)C)cccc1C(C)C)c1cccc2c1OCO2 (single isomer, unassigned) [Example 63] |  | Reduction of Cholesterol in Blood [2]: 56% |
|  | CCCCC(CNC(=O)Nc1c(C(C)C)cccc1C(C)C)c1cc(OC)c2c(c1)OCO2 (stereo not shown) [Example 52, 1-(2-(3,4-methylenedioxy-5-methoxyphenyl)hexyl)-3-(2,6-diisopropylphenyl)urea] | 15 |  |
|  | CC(C)c1cccc(C(C)C)c1NC(=O)NCC1(c2cccc3c2OCO3)CCCC1 [Example 12] | 10 |  |
| 5 | CCCCCC(C)(CNC(=O)Nc1c(C(C)C)cccc1C(C)C)c1cccc2c1OCO2 (stereo not shown) [Example 29] | 61 |  |
|  | CCCC(CNC(=O)Nc1c(C(C)C)cccc1C(C)C)c1ccc2c(c1)OCO2 (stereo not shown) [Example 16] | 34 |  |
|  | CC(C)CCCC(CNC(=O)Nc1c(C(C)C)cccc1C(C)C)c1ccc2c(c1)OCO2 (stereo not shown) [Example 20] | 46 |  |
| 26 | CCCCCC(CNC(=O)Nc1c(CC)cccc1C(C)CC)c1cccc2c1OCO2 (stereo not shown) [Example 36] |  |  |
|  | CCCC(CCC)(CNC(=O)Nc1c(C(C)C)cccc1C(C)C)c1cccc2c1OCO2 [Example 30] | 18 |  |
| 13 | CCCCC(CNC(=O)Nc1c(C(C)C)cccc1C(C)C)c1ccc2c(c1)OCCO2 (stereo not shown) [Example 23] | 39 |  |
| 12 | CCCCCC(CNC(=O)Nc1c(C(C)C)cccc1C(C)C)c1cccc2c1OCO2 (single isomer, unassigned) [Example 64] |  | Reduction of Cholesterol in Blood [2]: 27% |

| IC50 [1] [nM] | Structure (SMILES) | inhibition in vivo at 1 mg/kg [2] [%] | also measured |
| --- | --- | --- | --- |
|  | CCCCCCC(CNC(=O)Nc1c(C(C)C)cccc1C(C)C)c1ccc2c(c1)OCCO2 (stereo not shown) [Example 25] | 39 |  |
|  | CC(C)c1cccc(C(C)C)c1NC(=O)NCC1(c2cccc3c2OCO3)CCCCC1 [Example 13] | 19 |  |
| 12 | CCCCC(CNC(=O)Nc1c(C(C)C)cccc1C(C)C)c1cccc2c1CCCC2 (single isomer, unassigned) [Example 65] | 44 |  |
| 20 | CCCCCC(CNC(=O)Nc1c(OC)cccc1OC)c1cccc2c1OCO2 (stereo not shown) [Example 48, 1-(2-(2,3-methylenedioxyphenyl)heptyl)-3-(2,6-dimethoxyphenyl)urea] |  |  |
| 86 | CCCCCCCC(CNC(=O)Nc1c(C(C)C)cccc1C(C)C)c1cccc2c1OCO2 (stereo not shown) [Example 9] |  |  |
|  | CCCCC(CNC(=O)Nc1c(C(C)C)cccc1C(C)C)c1cccc2c1OCO2 (stereo not shown) [Example 6] | 40 |  |
|  | CCCCCC(CNC(=O)Nc1c(C(C)C)cccc1C(C)C)c1ccc2c(c1)OCO2 (stereo not shown) [Example 18] | 33 |  |
| 34 | CCCCCC(CNC(=O)Nc1c(Cl)cccc1Cl)c1cccc2c1OCO2 (stereo not shown) [Example 34, 1-(2-(2,3-methylenedioxyphenyl)heptyl)-3-(2,6-dichlorophenyl)urea] |  |  |
|  | CCCCC(CNC(=O)Nc1c(C(C)C)cccc1C(C)C)c1ccc2c(c1)OCO2 (single isomer, unassigned) [Example 62] |  | Reduction of Cholesterol in Blood [2]: 33% |
|  | CCCCC(CNC(=O)Nc1c(C(C)C)cccc1C(C)C)c1ccc2c(c1)OCO2 (single isomer, unassigned; (+)) [Example 61, (+)-1-(2-(3,4-methylenedioxyphenyl)-hexyl)-3-(2,6-diisopropylphenyl)urea] | 45 |  |
|  | CC(C)CCCC(CNC(=O)Nc1c(C(C)C)cccc1C(C)C)c1cccc2c1CCCC2 (stereo not shown) [Example 57] | 38 |  |
|  | CCCCCC(CNC(=O)Nc1c(C(C)C)cccc1C(C)C)c1cccc2c1OCO2 (stereo not shown) [Example 1, 1-(2-(2,3-methylenedioxyphenyl)heptyl)-3-(2,6-diisopropylphenyl)urea] | 34 |  |
| 56 | CCCC(CNC(=O)Nc1c(C(C)C)cccc1C(C)C)c1cccc2c1OCO2 (stereo not shown) [Example 5] |  |  |
| 38 | CCCCCC(CNC(=O)Nc1c(C)cccc1C)c1cccc2c1OCO2 (stereo not shown) [Example 33, 1-(2-(2,3-methylenedioxyphenyl)heptyl)-3-(2,6-dimethylphenyl)urea] |  |  |
| 32 | CCC(CC)(CNC(=O)Nc1c(C(C)C)cccc1C(C)C)c1cccc2c1OCO2 [Example 11] | 31 |  |
|  | CC(C)c1cccc(C(C)C)c1NC(=O)NCC(c1ccccc1)C(C)(C)C (stereo not shown) [Comparison, 1-(3,3-dimethyl-2-phenylbutyl)-3-(2,6-diisopropylphenyl)urea] |  | inhibition in vivo at 5 mg/kg [3]: 5% |
| 9 | CCCCC(CNC(=O)Nc1c(C(C)C)cccc1C(C)C)c1ccc2c(c1)OCO2 (stereo not shown) [Example 17] | 34 |  |
|  | CCCCC(CNC(=O)Nc1c(C(C)C)cccc1C(C)C)c1cccc2c1CCCC2 (stereo not shown) [Example 55, 1-(2-(2,3-tetramethylenephenyl)hexyl)-3-(2,6-diisopropylphenyl)urea] | 35 |  |
|  | CCCCC(CNC(=O)Nc1c(C(C)C)cccc1C(C)C)c1cccc2c1OCCO2 (stereo not shown) [Example 14] | 30 |  |
|  | CCCCCCC(CNC(=O)Nc1c(C(C)C)cccc1C(C)C)c1ccc2c(c1)OCO2 (stereo not shown) [Example 19] | 23 |  |
